Each structure is given as a SMILES string.

Sequence of human mGluR5A (P41594 other isoform, or with tags, fused parts or gaps): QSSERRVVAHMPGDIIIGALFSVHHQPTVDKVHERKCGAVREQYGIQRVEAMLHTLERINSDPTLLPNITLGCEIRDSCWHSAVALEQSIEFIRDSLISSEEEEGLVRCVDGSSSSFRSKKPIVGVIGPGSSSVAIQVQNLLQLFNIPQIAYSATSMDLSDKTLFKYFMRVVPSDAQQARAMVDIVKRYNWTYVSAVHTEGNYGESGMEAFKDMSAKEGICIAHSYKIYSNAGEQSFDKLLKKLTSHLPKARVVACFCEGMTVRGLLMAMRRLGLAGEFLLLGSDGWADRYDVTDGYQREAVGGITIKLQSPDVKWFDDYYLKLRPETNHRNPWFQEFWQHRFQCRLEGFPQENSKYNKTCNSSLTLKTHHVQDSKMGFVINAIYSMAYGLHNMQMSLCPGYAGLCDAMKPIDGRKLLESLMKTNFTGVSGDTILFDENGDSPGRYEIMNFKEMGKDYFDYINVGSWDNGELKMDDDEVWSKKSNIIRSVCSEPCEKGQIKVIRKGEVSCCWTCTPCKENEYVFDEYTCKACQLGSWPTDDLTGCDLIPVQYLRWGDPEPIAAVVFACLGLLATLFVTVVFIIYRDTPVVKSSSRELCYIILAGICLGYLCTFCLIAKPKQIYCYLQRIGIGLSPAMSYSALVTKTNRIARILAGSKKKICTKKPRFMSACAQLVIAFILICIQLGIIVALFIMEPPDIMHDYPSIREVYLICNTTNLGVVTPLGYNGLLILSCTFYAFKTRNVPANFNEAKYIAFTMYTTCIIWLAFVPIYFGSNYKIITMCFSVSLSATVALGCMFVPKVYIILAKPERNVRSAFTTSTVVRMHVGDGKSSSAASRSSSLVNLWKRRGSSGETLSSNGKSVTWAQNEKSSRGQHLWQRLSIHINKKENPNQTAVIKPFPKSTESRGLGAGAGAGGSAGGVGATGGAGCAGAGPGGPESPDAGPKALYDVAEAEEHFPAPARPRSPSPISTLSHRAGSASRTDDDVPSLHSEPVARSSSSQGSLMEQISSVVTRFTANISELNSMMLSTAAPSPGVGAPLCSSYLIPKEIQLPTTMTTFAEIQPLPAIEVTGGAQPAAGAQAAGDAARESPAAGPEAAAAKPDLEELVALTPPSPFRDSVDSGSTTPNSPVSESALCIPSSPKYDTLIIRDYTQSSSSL

The assay deals with human mGluR5A (Homo sapiens (Human), UniProt P41594). Kind of assay: mGluR5 FLIPR Assay. The format is cell-based. The note with it: positive modulator activity, HEK293 (ZF) cells with human mGluR5A and rat GLAST, Ca++ response to ~EC10 l-glutamate. Here is the method:
HEK293 (ZF) cells stably transfected with human mGluR5A (pIRES neo) and the rat glutamate-aspartate transporter (GLAST; pIRES puro) are grown in a monolayer culture at 37° C. in 5% CO2 and fed with Minimum Essential Medium (MEM) supplemented with 10% dialysed fetal bovine serum. […] Plates are incubated in dye at 37° C. in 5% CO2 for 60 minutes prior to delivery of test compounds in assay buffer. Test compounds are incubated with cells in the presence of dye for 10 minutes prior to being read on the FLIPR platform (Molecular Devices). A Ca^++ signal is induced in the assay plates via the delivery of an ˜EC10 concentration of the endogenous agonist 1-glutamate; images are acquired at 1 Hz for 100 seconds post-delivery of agonist stimulus. Positive modulator activity (i.e. the ability of test compounds to increase the Ca^++ response to a sub-maximal concentration of agonist) is normalized to a saturating concentration of a known mGluR5 PAM run in each assay plate. An EC50 concentration of test compounds is derived from 4-parameter logistic curve fits of transformed fluoresence data via proprietary software suite.
The EC50 is the concentration needed to bring the measured effect to its halfway point. As to `O=C1N[C@H](c2cncc(C#CCC3CCOC3)c2)[C@@H](c2cccc(F)c2)O1` (some centres unmarked) [Example 65], the EC50 was determined as 14.7 nM.
In turn, `O=C1N[C@H](c2cncc(C#CCC3CCOC3)c2)[C@@H](c2cccc(F)c2)O1` (some centres unmarked) [Example 66] returned an EC50 of 15.2 nM.
Molecule `O=C1N[C@H](c2cncc(C#CCCOCC(F)(F)F)c2)[C@@H](c2cccc(F)c2)O1` [Example 67] showed a 50% effective concentration (EC50) of 88.6 nM.
`O=C1N[C@H](c2cncc(C#CCC3COC3)c2)[C@@H](c2cccc(F)c2)O1` [Example 68] yielded a half-maximal effective concentration (EC50) of 932 nM.
With `O=C1N[C@H](c2cncc(C#CCC3CCO3)c2)[C@@H](c2cccc(F)c2)O1` (some centres unmarked) [Example 69], the EC50 is > 1610 nM.
For `O=C1N[C@H](c2cncc(C#CCN3CC(F)(F)C3)c2)[C@@H](c2cccc(F)c2)O1` [Example 70, (4R,5R)-4-(5-(3-(3,3-Difluoroazetidin-1-yl)prop-1-yn-1-yl)pyridin-3-yl)-5-(3-fluorophenyl)oxazolidin-2-one], the EC50 worked out at 29.6 nM.
Consider `Cc1cn(CC#Cc2cncc([C@H]3NC(=O)O[C@@H]3c3cccc(F)c3)c2)cn1` [Example 71, (4R,5R)-5-(3-Fluorophenyl)-4-(5-(3-(4-methyl-M-imidazol-1-yl)prop-1-yn-1-yl)pyridin-3-yl)oxazolidin-2-one], for which the EC50 is > 3230 nM.
`O=C1N[C@H](c2cncc(C#CC(O)CC3CC3)c2)[C@@H](c2cccc(F)c2)O1` (stereo partly drawn) [Example 72, (4R,5R)-4-(5-(4-Cyclopropyl-3-hydroxybut-1-yn-1-yl)pyridin-3-yl)-5-(3-fluorophenyl)oxazolidin-2-one] had a half-maximal effective concentration (EC50) of 16.6 nM.
As for `CC1CC1C(O)C#Cc1cncc([C@H]2NC(=O)O[C@@H]2c2cccc(F)c2)c1` (some centres unmarked) [Example 75], the midpoint of the response, the EC50, lay at 129 nM.
With `O=C1N[C@H](c2cncc(C#CC(O)C3CC3(F)F)c2)[C@@H](c2cccc(F)c2)O1` (some centres unmarked) [Example 76] the figure was 334 nM.
On to `CC1(C)CC1C(O)C#Cc1cncc([C@H]2NC(=O)O[C@@H]2c2cccc(F)c2)c1` (some centres unmarked) [Example 77], for which the half-maximal effective concentration (EC50) was > 1610 nM.
Take `CN(C)CC#Cc1cncc([C@H]2NC(=O)O[C@@H]2c2cccc(F)c2)c1` [Example 79, (4R,5R)-4-(5-(3-(Dimethylamino)prop-1-yn-1-yl)pyridin-3-yl)-5-(3-fluorophenyl)oxazolidin-2-one]: the half-maximal effective concentration (EC50) came out at 463 nM.
For `COc1cccc([C@H]2OC(=O)N[C@@H]2c2cccc(C#CC3CC3)c2)c1` [Example 80, (4R,5R)-4-(3-(Cyclopropylethynyl)phenyl)-5-(3-methoxyphenyl)oxazolidin-2-one], the half-maximal effective concentration (EC50) was > 3000 nM.
Regarding `O=C1N[C@H](c2cncc(C#CC3CCCCC3)c2)[C@@H](c2cc(F)ccc2F)O1` [Example 81, (4R,5R)-4-(5-(Cyclohexylethynyl)pyridin-3-yl)-5-(2,5-difluorophenyl)oxazolidin-2-one], the 50% effective concentration (EC50) was 351 nM.
In the case of `O=C1N[C@H](c2cncc(C#CC34CCC(CC3)CC4)c2)[C@@H](c2cc(F)ccc2F)O1` [Example 82, (4R,5R)-4-(5-(Bicyclo[2.2.2]octan-1-ylethynyl)pyridin-3-yl)-5-(2,5-difluorophenyl)oxazolidin-2-one], the EC50 is 1310 nM.
Take `O=C1N[C@H](c2cncc(C#CC34CCC(CC3)CC4)c2)[C@@H](c2cccc(F)c2)O1` [Example 84, (4R,5R)-4-(5-(Bicyclo[2.2.2]octan-1-ylethynyl)pyridin-3-yl)-5-(3-fluorophenyl)oxazolidin-2-one]: the 50% effective concentration (EC50) is 3670 nM.
On to `O=C1N[C@H](c2cncc(C#CC3(O)CCCCC3)c2)[C@@H](c2cccc(F)c2)O1` [Example 85, (4R,5R)-5-(3-Fluorophenyl)-4-(5-((1-hydroxycyclohexyl)ethynyl)pyridin-3-yl)oxazolidin-2-one], for which a half-maximal response (EC50) required 1060 nM.
With `CC1(C#Cc2cncc([C@H]3NC(=O)O[C@@H]3c3cccc(F)c3)c2)CCCCC1` [Example 87, (4R,5R)-5-(3-Fluorophenyl)-4-(5-((1-methylcyclohexyl)ethynyl)pyridin-3-yl)oxazolidin-2-one], the EC50 was > 10800 nM.
With `O=C1N[C@H](c2cncc(C#CC34CCCCC3C4)c2)[C@@H](c2cccc(F)c2)O1` (stereo partly drawn) [Example 90, (4R,5R)-4-(5-(Bicyclo[4.1.0]heptan-1-ylethynyl)pyridin-3-yl)-5-(3-fluorophenyl)oxazolidin-2-one] the figure was 377 nM.
`O=C1N[C@H](c2cncc(C#CC3(F)CCCCC3)c2)[C@@H](c2cccc(F)c2)O1` [Example 91, (4R,5R)-4-(5-((1-Fluorocyclohexyl)ethynyl)pyridin-3-yl)-5-(3-fluorophenyl)oxazolidin-2-one]: the 50% effective concentration (EC50) stood at 96.2 nM.
Then `O=C1N[C@H](c2cncc(C#CC3CCC(F)(F)CC3)c2)[C@@H](c2cccc(F)c2)O1` [Example 92, (4R,5R)-4-(5-((4,4-Difluorocyclohexyl)ethynyl)pyridin-3-yl)-5-(3-fluorophenyl)oxazolidin-2-one], with 50.9 nM.
Then `O=C1N[C@H](c2cncc(C#CC3CCOCC3)c2)[C@@H](c2cc(F)ccc2F)O1` [Example 100, (4R,5R)-5-(2,5-Difluorophenyl)-4-(5-((tetrahydro-2H-pyran-4-yl)ethynyl)pyridin-3-yl)oxazolidin-2-one], with 282 nM; and `N#Cc1cccc([C@H]2OC(=O)N[C@@H]2c2cncc(C#CC3CC(F)(F)C3)c2)c1` [Example 107, 3-((4R,5R)-4-(5-((3,3-Difluorocyclobutyl)ethynyl)pyridin-3-yl)-2-oxooxazolidin-5-yl)benzonitrile], with 280 nM; and `O=C1N[C@H](c2cc(C#CC3CC(F)(F)C3)cnc2F)[C@@H](c2cccc(F)c2)O1` [Example 111, (4R,5R)-4-(5-((3,3-Difluorocyclobutyl)ethynyl)-2-fluoropyridin-3-yl)-5-(3-fluorophenyl)oxazolidin-2-one], with 104 nM.
`O=C1N[C@H](c2cc(C#CC3CC(F)(F)C3)ccn2)[C@@H](c2ccccc2)O1` [Example 112, (4R,5R)-4-(4-((3,3-Difluorocyclobutyl)ethynyl)pyridin-2-yl)-5-phenyloxazolidin-2-one]: the EC50 is > 3230 nM.
`O=C1N[C@H](c2cccc(C#CC3CC(F)(F)C3)n2)[C@@H](c2ccccc2)O1` [Example 113, (4R,5R)-4-(6-((3,3-Difluorocyclobutyl)ethynyl)pyridin-2-yl)-5-phenyloxazolidin-2-one]: the 50% effective concentration (EC50) was > 3230 nM.
With `O=C1N[C@H](c2ccnc(C#CC3CC(F)(F)C3)c2)[C@@H](c2ccccc2)O1` [Example 114, (4R,5R)-4-(2-((3,3-Difluorocyclobutyl)ethynyl)pyridin-4-yl)-5-phenyloxazolidin-2-one], the EC50 is > 3230 nM.
With `COc1cccc([C@H]2OC(=O)N[C@@H]2c2cccc(C#CC3CC(F)(F)C3)c2)c1` [Example 116, (4R,5R)-4-(3-((3,3-Difluorocyclobutyl)ethynyl)phenyl)-5-(3-methoxyphenyl)oxazolidin-2-one], the EC50 was > 1610 nM.
In turn, `O=C1N[C@H](c2cncc(C#CC3CC(F)(F)C3)c2)[C@@H](c2ccc(F)c(F)c2F)O1` [Example 118, (4R,5R)-4-(5-((3,3-Difluorocyclobutyl)ethynyl)pyridin-3-yl)-5-(2,3,4-trifluorophenyl)oxazolidin-2-one] had an EC50 of 80.5 nM.
Molecule `O=C1N[C@H](c2cncc(C#CC3CC(F)(F)C3)c2)[C@@H](c2ccc(F)c(F)c2)O1` [Example 119, (4R,5R)-4-(5-((3,3-Difluorocyclobutyl)ethynyl)pyridin-3-yl)-5-(3,4-difluorophenyl)oxazolidin-2-one] returned a 50% effective concentration (EC50) of 21.6 nM.
Then `O=C1N[C@H](c2cncc(C#CC3CC(F)(F)C3)c2)[C@@H](c2cc(F)c(F)cc2F)O1` [Example 122, (4R,5R)-4-(5-((3,3-Difluorocyclobutyl)ethynyl)pyridin-3-yl)-5-(2,4,5-trifluorophenyl)oxazolidin-2-one], with 58.6 nM; and `O=C1N[C@H](c2cncc(C#CC3CC3)c2)[C@@H](c2cccc(Cl)c2Cl)O1` [Example 125, (4R,5R)-4-(5-(Cyclopropylethynyl)pyridin-3-yl)-5-(2,3-dichlorophenyl)oxazolidin-2-one], with 179 nM.

The values are drawn from patent US9688669B2, “Oxazolidinones as modulators of mGluR5” (BRISTOL-MYERS SQUIBB COMPANY, priority 2013, dated 2017).
